The text below walks through data of patent publication US11046712B2, “Glycosidase inhibitors” (Asceneuron SA, priority 2014, dated 2021).

The target of this test is His-Tagged hOGA (human O-GlcNAcase) (Homo sapiens (Human), UniProt O60502). Nature of the test: Human O-GlcNAcase enzyme inhibition assay (Example B01). The conditions noted are these: for IC50: OGA IC50 (M). The format is biochemical.
Where [1] appears, read: OGA enzyme inhibition assay, activity range classes.

pIC50: −log10 of the molar value. Like-named read-outs stand apart in the source and are kept apart here.

The pIC50 is the negative decadic logarithm of the IC50, by convention in mol/L. By IC50 is commonly meant the concentration that gives 50% inhibition.

His-Tagged hOGA (human O-GlcNAcase), sequence (O60502 whole entry): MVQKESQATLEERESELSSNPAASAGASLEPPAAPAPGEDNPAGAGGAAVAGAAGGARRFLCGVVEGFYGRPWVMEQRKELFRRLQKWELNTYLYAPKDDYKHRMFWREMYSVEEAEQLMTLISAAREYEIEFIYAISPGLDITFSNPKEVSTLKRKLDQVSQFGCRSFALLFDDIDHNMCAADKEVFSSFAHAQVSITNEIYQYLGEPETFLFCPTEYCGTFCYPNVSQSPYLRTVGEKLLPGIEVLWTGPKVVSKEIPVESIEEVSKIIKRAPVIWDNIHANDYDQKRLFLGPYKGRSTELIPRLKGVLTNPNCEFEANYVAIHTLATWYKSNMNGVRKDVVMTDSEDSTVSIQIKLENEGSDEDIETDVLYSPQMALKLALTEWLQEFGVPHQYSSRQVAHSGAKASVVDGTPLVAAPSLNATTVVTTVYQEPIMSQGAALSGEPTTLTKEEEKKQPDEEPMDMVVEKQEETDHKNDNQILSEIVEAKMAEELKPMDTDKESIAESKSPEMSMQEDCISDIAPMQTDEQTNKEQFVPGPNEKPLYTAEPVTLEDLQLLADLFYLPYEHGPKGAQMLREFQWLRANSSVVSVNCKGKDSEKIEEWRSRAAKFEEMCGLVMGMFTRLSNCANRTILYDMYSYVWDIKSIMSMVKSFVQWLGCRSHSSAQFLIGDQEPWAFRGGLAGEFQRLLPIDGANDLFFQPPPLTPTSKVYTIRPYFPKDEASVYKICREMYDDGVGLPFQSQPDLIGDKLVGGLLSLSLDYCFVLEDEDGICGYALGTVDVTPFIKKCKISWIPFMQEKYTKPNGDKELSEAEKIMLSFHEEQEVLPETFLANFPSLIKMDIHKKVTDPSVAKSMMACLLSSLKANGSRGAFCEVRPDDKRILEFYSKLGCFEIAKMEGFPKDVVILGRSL

As for `CNC(=O)c1csc(N2CCN([C@@H](C)c3ccc4c(c3)OCCO4)CC2)n1` (single isomer, unassigned) [Example 57, (R)-2-(4-(1-(2,3-dihydrobenzorbin,41dioxin-6-yl)ethyl)piperazin-1-yl)-N-methylthiazole-4-carboxamide or (S)-2-(4-(1-(2,3-dihydrobenzorbiri,41dioxin-6-yl)ethyl)piperazin-1-yl)-N-methylthiazole-4-carboxamide], the pIC50 (OGA enzyme inhibition assay, activity range classes, read-out: OGA IC50) was over 7.30.

For `C[C@@H](c1ccc2c(c1)OCCO2)N1CCN(c2ncc(C(=O)N3CCN(C)CC3)s2)CC1` (single isomer, unassigned) [Example 75], the “OGA inhibitor activity, in words” value is “very potent OGA inhibitors”. This molecule also displayed an IC50 under setting [1] of under 5e-08 M. Regarding `C[C@H](c1ccc2nccnc2c1)N1CCN(c2ncc(C(F)(F)F)cn2)CC1` (single isomer, unassigned) [Example 104, (S)-6-(1-(4-(5-(trifluoromethyl)pyrimidin-2-yl)piperazin-1-yl)ethyl)quinoxaline or (R)-6-(1-(4-(5-(trifluoromethyl)pyrimidin-2-yl)piperazin-1-yl)ethyl)quinoxaline], the IC50 under setting [1] is 5e-08 to 2e-07 M.

For `C[C@@H](c1ccc2c(c1)OCO2)N1CCN(c2nnc(N)s2)CC1` [Example 132, (S)-5-(4-(1-(benzordiri,31dioxol-5-yl)ethyl)piperazin-1-yl)-1,3,4-thiadiazol-2-amine], the “OGA inhibitor activity, in words” value is on record as “very potent OGA inhibitors”. Still for that read-out and setting: with `C[C@@H](c1ccc2c(c1)OCO2)N1CCN(c2ncc(F)cn2)CC1` [Example 173, (S)-2-(4-(1-(benzofdin,31dioxol-5-yl)ethyl)piperazin-1-yl)-5-fluoropyrimidine] the entry was “very potent OGA inhibitors”.
